Laboratory results from patent publication US9580395B2, “Compositions of dual thyrointegrin antagonists and use in vascular-associated disorders” (Vascular Vision Pharmaceutical Company, priority 2009, dated 2017).

How the values were obtained:
[1] = system: angiogenesis-induced by the growth factor basic fibroblast growth factor (FGF); experiment: Inhibition of FGF-induced angiogenesis in the chick chorioallantoic membrane (CAM) model; assay type: in vivo; details: Gallus gallus; for inhibition at 0.25 µg/mL: FGF + compound 0.25 μg/ml; for inhibition at 250 µg/mL: 10 μl at 0.25 mg/ml added to FGF impregnated filter
Procedure: To investigate the structure-activity relationships of novel dual Thyrointegrin inhibitors of the present invention, the effect of each compound on angiogenesis-induced by the growth factor basic fibroblast growth factor (FGF) was assessed in the CAM model as depicted in Table 1.
The data in Table 1 represents a mean±standard deviation (SD), n=8 as compared to FGF alone (p<0.001; 10 μl from the different test compounds were added to the FGF impregnated sterile filter).
The CAM system is a widely-used model in which the chick embryonic membrane is exposed to stimulatory and inhibitory compounds. Ten day-old fertilized chicken eggs (Sunrise Farms Inc, Catskill, N.Y.) were incubated at 37° C. and 55% relative humidity. In the dark, with the help of a candling lamp, a small hole was punctured in the area of the shell covering the air sac using a hypodermic needle. A second hole was punctured on the wider side of the egg above an avascular area of the embryonic membrane. An artificial air sac was created below the second hole by gently applying a vacuum to the first hole using a small rubber squeeze bulb. The vacuum caused the separation of the CAM from the shell. A window of approximately 1.0 cm^2 was cut in the shell over the dropped CAM with the use of a mini drill. The underlying CAM was accessed through this small window. Filter disks were punched from filter paper #1 (Whatman International, Ltd, United Kingdom), and then soaked in 3.0 mg/mL cortisone acetate solution (in 95% ethanol) and air-dried under sterile conditions. To induce angiogenesis, sterile filter disks were saturated with FGF and placed on the CAM using sterile forceps. As a control, disks were saturated with PBS without calcium or magnesium. The window was sealed with Highland Brand transparent tape. After 1 hour, 10 μL of inhibitor were applied topically to the FGF-stimulated CAM. After 48 hours, CAM tissue directly beneath the filter disk was harvested and placed in a 35-mm petri dish for evaluation of angiogenesis. Eight eggs were used per treatment.
Digital Imaging and analysis: CAMs in petri dishes were examined using a SV6 stereomicroscope (Carl Zeiss Microlmaging, Inc) at 50× magnification. Digital images were captured using a 3-CCD color video camera system (Toshiba America, Inc, New York, N.Y.). The images were analyzed using Image-Pro Plus (Media Cybernetics, Inc). The number of branch points within a circular region superimposed on the area of the filter disk was counted for each treatment condition.

[2] = target: cell surface receptor αvβ3 (Homo sapiens, UniProt P05106+P06756); details: literature (Rebbaa et al. 2008); cited from earlier work
cell surface receptor αvβ3, sequence (P06756 31-889 limits assumed): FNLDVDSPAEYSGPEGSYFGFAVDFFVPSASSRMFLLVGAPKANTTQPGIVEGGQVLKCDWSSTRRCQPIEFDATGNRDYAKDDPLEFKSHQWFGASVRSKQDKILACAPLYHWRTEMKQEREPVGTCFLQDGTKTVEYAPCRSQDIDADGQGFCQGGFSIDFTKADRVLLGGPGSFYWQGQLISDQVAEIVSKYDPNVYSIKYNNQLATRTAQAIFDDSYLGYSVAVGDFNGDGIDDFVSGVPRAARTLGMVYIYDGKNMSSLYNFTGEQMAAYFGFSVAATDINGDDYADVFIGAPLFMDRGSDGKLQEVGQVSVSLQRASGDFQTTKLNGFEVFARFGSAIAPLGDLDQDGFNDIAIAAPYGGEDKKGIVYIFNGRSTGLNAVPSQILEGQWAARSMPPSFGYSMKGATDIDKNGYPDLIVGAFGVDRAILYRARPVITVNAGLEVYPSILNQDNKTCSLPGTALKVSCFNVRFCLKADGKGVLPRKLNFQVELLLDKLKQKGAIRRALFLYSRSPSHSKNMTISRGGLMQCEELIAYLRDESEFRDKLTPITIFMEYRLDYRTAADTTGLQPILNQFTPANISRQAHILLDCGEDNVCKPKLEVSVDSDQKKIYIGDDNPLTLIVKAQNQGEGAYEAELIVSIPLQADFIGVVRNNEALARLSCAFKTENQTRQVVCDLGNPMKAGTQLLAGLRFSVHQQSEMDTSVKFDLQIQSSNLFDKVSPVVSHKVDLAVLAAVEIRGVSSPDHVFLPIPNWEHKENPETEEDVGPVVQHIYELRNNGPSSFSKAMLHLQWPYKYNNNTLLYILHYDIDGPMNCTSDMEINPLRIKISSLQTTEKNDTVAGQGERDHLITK
cell surface receptor αvβ3, sequence (P06756 891-1048 partner limits assumed): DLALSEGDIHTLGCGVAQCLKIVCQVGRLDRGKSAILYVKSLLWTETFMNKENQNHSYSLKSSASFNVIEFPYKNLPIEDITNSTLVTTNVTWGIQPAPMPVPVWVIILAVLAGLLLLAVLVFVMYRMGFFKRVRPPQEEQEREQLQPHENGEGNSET
cell surface receptor αvβ3, sequence (P05106 27-788): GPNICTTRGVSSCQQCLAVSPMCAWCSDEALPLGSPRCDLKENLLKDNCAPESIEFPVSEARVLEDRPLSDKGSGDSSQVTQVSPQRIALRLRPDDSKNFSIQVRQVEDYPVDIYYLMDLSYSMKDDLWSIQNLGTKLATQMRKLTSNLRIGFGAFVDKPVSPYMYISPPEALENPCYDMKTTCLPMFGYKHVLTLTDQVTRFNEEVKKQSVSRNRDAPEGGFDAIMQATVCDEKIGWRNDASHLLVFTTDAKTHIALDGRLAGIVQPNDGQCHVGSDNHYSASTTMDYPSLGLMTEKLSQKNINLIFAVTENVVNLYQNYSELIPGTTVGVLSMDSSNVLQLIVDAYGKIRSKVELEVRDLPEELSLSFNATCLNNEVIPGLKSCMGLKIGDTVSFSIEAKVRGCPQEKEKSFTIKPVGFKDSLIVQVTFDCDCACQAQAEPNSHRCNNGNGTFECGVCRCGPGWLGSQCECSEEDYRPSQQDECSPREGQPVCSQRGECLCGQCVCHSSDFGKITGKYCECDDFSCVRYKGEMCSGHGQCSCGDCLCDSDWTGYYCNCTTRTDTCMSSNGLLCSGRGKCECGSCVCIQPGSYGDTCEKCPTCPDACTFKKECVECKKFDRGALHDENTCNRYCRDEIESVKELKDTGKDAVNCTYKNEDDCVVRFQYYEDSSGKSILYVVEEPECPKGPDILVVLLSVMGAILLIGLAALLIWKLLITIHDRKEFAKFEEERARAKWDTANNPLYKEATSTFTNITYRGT

[3] = target: αvβ3 (Homo sapiens, UniProt P05106+P06756); experiment: Inhibition of αvβ3-mediated binding in a specific cell adhesion assay; assay type: cell-based; details: at 100 nM
αvβ3, sequence (P06756 31-889 limits assumed): as the sequence (P06756 31-889 limits assumed) above
αvβ3, sequence (P06756 891-1048 partner limits assumed): as the sequence (P06756 891-1048 partner limits assumed) above
αvβ3, sequence (P05106 27-788): as the sequence (P05106 27-788) above

[4] = 10 μl on FGF filter, mean ± SD, n=8, vs FGF alone
[5] = post-ester hydrolysis to make the free acid

SMILES	inhibition at 0.1 µM [3] [%]	inhibition at 250 µg/mL [1] [%]	inhibition at 0.1 µM [3, 5] [%]	inhibition at 250 µg/mL [1, 5] [%]	further results
O=C(O)Cc1cc(I)c(Oc2cc(I)c(O)c(I)c2)c(I)c1 [Tetrac, [4-(4-Hydroxy-3,5-diiodophenoxy)-3,5-diiodophenyl]acetic acid, reference compound]					inhibition at 10 µg/mL ([1]; FGF + compound 10 μg/ml, 10 μl on FGF filter, mean ± SD, n=8, vs FGF alone): 85 ± 11%; affinity of binding to αvβ3 [2]: weak affinity
NC(N)=NCCOc1c(I)cc(Oc2c(I)cc(CC(=O)[O-])cc2I)cc1I.[Li+] [compound 21, Lithium [4-(4-{2-[(diaminomethylene)amino]ethoxy}-3,5-diiodophenoxy)-3,5-diiodophenyl]acetate]					melting point: 133 °C; inhibition at 0.25 µg/mL [1, 4]: 75 ± 10%
NC(=O)NCCOc1c(I)cc(Oc2c(I)cc(CC(=O)O)cc2I)cc1I [compound 22, (4-{4-[2-(Carbamoylamino)ethoxy]-3,5-diiodophenoxy}-3,5-diiodophenyl)acetic acid]					melting point: 267 °C; inhibition at 0.25 µg/mL [1, 4]: 74 ± 13%
NCCCOc1c(I)cc(Oc2c(I)cc(CC(=O)O)cc2I)cc1I [compound 23, {4-[4-(3-aminopropoxy)-3,5-diiodophenoxy]-3,5-diiodophenyl}acetic acid]					inhibition at 0.25 µg/mL [1, 4]: 88 ± 11%
CC(C)(C)OC(=O)NCCCOc1c(I)cc(Oc2c(I)cc(CC(=O)O)cc2I)cc1I [compound 30]	66 ± 8	75 ± 7			
COC(=O)Cc1cc(I)c(Oc2cc(I)c(OCCCN)c(I)c2)c(I)c1 [compound 31]	0	0			
NCCCOc1c(I)cc(Oc2c(I)cc(CC(=O)O)cc2I)cc1I [compound 32]			100	88 ± 8	
COC(=O)Cc1cc(I)c(Oc2cc(I)c(OCCCNCc3cccnc3)c(I)c2)c(I)c1 [compound 33]	0	0			
O=C(O)Cc1cc(I)c(Oc2cc(I)c(OCCCNCc3cccnc3)c(I)c2)c(I)c1 [compound 34]			68 ± 7	95 ± 11	
COC(=O)Cc1cc(I)c(Oc2cc(I)c(OCCCN3CCSCC3)c(I)c2)c(I)c1 [compound 35]	0	0			
O=C(O)Cc1cc(I)c(Oc2cc(I)c(OCCCN3CCSCC3)c(I)c2)c(I)c1 [compound 36]			93 ± 8	89 ± 10	
CCN(CC)CCCOc1c(I)cc(Oc2c(I)cc(CC(=O)OC)cc2I)cc1I [compound 37]	1	0	100	83	
